Assay results published in patent publication US8193191B2, “Urotensin II receptor antagonists” (Janssen Pharmaceutica N.V., priority 2006, dated 2012).
pIC50, pKi: −log10 of the molar value. Read-outs that look alike come from different tables or passages of the source.

Columns and labels:
[1] = target: T1, Human UII receptor, 6D9 human rhabdomyosarcoma cells (Homo sapiens, UniProt Q9UKP6); test: Human UII Calcium Mobilization Assay; format: cell-based; details: average value, FLIPR TETRA, read-out: Human UII Ca^+ Mobilization Average IC50
T1 construct: 6D9: isolated by dilution subcloning of RMS13 cells, ATCC® Number: CRL-2061; host or cells: 6D9 human rhabdomyosarcoma cells (subclone of RMS13)
T1 sequence (Q9UKP6 1-389): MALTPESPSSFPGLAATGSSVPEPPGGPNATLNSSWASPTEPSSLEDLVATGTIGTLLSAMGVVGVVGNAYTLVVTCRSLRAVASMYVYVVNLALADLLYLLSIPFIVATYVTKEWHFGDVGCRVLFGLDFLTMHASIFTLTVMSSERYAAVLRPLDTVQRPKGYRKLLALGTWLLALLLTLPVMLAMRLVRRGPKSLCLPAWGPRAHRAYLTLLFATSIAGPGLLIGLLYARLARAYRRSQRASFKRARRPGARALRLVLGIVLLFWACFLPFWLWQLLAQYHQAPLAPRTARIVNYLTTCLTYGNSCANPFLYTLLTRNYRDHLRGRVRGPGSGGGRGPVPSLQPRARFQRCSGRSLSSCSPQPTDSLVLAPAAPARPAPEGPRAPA
Experimental: 6D9 human rhabdomyosarcoma cells were seeded into tissue culture treated 384-well black-walled clear bottom plates (3712, Corning Incorporated, Corning, N.Y.) at 8,000 cells/well in 25 μL of culture medium, and maintained in an incubator (5% CO2 at 37° C.) for 22 hrs prior to the calcium mobilization assay. 25 μL of dye solution was added to the wells such that the final liquid volume before agonist/antagonist treatment was 50 μL for all assays. The cell plates were incubated at 37° C. for 45 minutes and the fluorescence intensity was measured on a Fluorometric Imaging Plate Reader (FLIPR^TETRA, Molecular Devices, Sunnyvale, Calif.).
Antagonist and agonist U-II were added at room temperature on the FLIPR^TETRA, and the fluorescence intensity before and after addition was measured over a period of 4 minutes. The dye incubation time and temperature as well as instrument setting was adjusted so the fluorescence intensity could be compared between plates on the same day. EC50 and IC50 were analyzed using GraphPad Prism 4 software (GraphPad Software Inc., San Diego, Calif.).
Materials and reagent Preparation: Human Rhabdomyosarcoma cells (6D9: isolated by dilution subcloning of RMS13 cells, ATCC® Number: CRL-2061, American Type Culture Collection ATCC, Manassas, Va.) was maintained in RPMI-1640 medium (30-2001, ATCC, Manassas, Va.) supplemented with 10% (v/v) Fetal Bovine Serum (SH30071.03, Hyclone, Logan, Utah).
Dye preparation: BD™ Calcium Assay Kit (80500-301, BD Biosciences, Rockville, Md.) was prepared according to the manufacture's instruction in 1× Hanks' balanced salt solution (HBSS, 21-023-CV, Mediatech, Inc. Herndon, Va.) containing 20 mM HEPES buffer (25-060-CI, Mediatech, Inc. Herndon, Va.). Final dye loading conditions included 1.25 mM probenecid (P36400, Invitrogen, Carlsbad, Calif.) and 0.01% FBS.
Urantide (PUT-3639-PI, Peptide International, Louisville, Ky.) was prepared in water at 5 mM. For assays, U-II agonist, U-II antagonist and urantide were diluted with HBSS/HEPES containing 0.01% FBS.
Test compounds were dissolved in DMSO at 10 mM concentration. The serial dilutions were carried out in HBSS/HEPES. The highest final DMSO concentration was at 0.1%.

[2] = target: T2, rat GPR14 (U-II receptor) (Rattus norvegicus, UniProt P49684); test: Rat UII Calcium Mobilization FLIPR Assay; format: cell-based; details: average value for the compound tested; read-out: Rat UII FLIPR Average IC50
T2 construct: expressed in transfected cells
T2 sequence (P49684 1-386): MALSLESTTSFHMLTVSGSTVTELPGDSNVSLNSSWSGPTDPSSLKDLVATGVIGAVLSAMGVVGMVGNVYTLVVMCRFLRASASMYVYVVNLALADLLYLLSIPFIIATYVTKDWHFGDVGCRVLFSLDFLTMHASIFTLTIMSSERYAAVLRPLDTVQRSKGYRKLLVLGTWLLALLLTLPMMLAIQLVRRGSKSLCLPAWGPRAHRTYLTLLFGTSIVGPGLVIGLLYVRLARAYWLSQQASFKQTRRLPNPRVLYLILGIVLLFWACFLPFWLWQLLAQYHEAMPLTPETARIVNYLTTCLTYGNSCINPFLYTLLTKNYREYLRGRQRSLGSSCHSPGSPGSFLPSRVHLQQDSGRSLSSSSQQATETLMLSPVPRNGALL
Procedure, shortened: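 Fluorescent calcium signals were recorded at room temperature (23° C) by FLIPR. Stable rat U-II receptor CHO lines had been dye-loaded for 1 h at 37° C in pH 7.4 HBSS containing 20 mM HEPES, 0.1% BSA and 2.5 mM probenecid.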

[3] = target: T3, endogenous human UII receptor (Homo sapiens, UniProt Q9UKP6); test: Human Radioligand Binding Assay ((^125I)-U-II binding to human skeletal muscle myoblasts)
T3 sequence (Q9UKP6 1-389): T1 sequence (Q9UKP6 1-389)

[4] = read-out: Human UII Average Binding Ki, average value, (^125I)-U-II binding to human skeletal muscle myoblasts (HSMM), 25° C., 3 h

Row | Compound | pIC50 [1] | pIC50 [2] | pKi [3] | pKi [3, 4]
1 | COc1ccc(C(CNC(=O)Cc2ccncc2)N2C(=O)c3cccc(N4CCN([C@H](C)c5ccccc5)CC4)c3C2=O)cc1OC (stereo partly drawn) [Cpd 102, N-(2-(3,4-dimethoxy-phenyl)-2-{1,3-dioxo-4-[4-(1R)-(1-phenyl-ethyl)-piperazin-1-yl]-1,3-dihydro-isoindol-2-yl}-ethyl)-2-pyridin-4-yl-acetamide] | 6.28 | 7.31 | 7.00 | –
2 | COc1ccc(C(CCCNC(=O)c2cccs2)N2C(=O)c3cccc(N4CCN([C@H](C)c5ccccc5)CC4)c3C2=O)cc1OC (stereo partly drawn) [Cpd 104, thiophene-2-carboxylic acid (4-(3,4-dimethoxy-phenyl)-4-{1,3-dioxo-4-[4-(1R)-(1-phenyl-ethyl)-piperazin-1-yl]-1,3-dihydro-isoindol-2-yl}-butyl)-amide] | 6.77 | 7.28 | 6.92 | –
3 | COc1ccc(C(CCCNS(=O)(=O)c2ccsc2)N2C(=O)c3cccc(N4CCN([C@H](C)c5ccccc5)CC4)c3C2=O)cc1OC (stereo partly drawn) [Cpd 105, thiophene-3-sulfonic acid (4-(3,4-dimethoxy-phenyl)-4-{1,3-dioxo-4-[4-(1R)-(1-phenyl-ethyl)-piperazin-1-yl]-1,3-dihydro-isoindol-2-yl}-butyl)-amide] | 6.96 | 7.17 | 7.19 | –
4 | COc1ccc(C(CCCNS(=O)(=O)c2cccnc2)N2C(=O)c3cccc(N4CCN([C@H](C)c5ccccc5)CC4)c3C2=O)cc1OC (stereo partly drawn) [Cpd 106, pyridine-3-sulfonic acid (4-(3,4-dimethoxy-phenyl)-4-{1,3-dioxo-4-[4-(1R)-(1-phenyl-ethyl)-piperazin-1-yl]-1,3-dihydro-isoindol-2-yl}-butyl)-amide] | 6.64 | 7.80 | 7.10 | –
5 | COc1ccc(C(CCCNS(=O)(=O)c2ccccn2)N2C(=O)c3cccc(N4CCN([C@H](C)c5ccccc5)CC4)c3C2=O)cc1OC (stereo partly drawn) [Cpd 107, pyridine-2-sulfonic acid (4-(3,4-dimethoxy-phenyl)-4-{1,3-dioxo-4-[4-(1R)-(1-phenyl-ethyl)-piperazin-1-yl]-1,3-dihydro-isoindol-2-yl}-butyl)-amide] | 6.36 | 7.60 | 8.00 | –
6 | COc1ccc([C@@H](CCCNS(=O)(=O)c2cccs2)N2C(=O)c3cccc(N4CCN([C@H](C)c5ccccc5)CC4)c3C2=O)cc1OC [Cpd 118, (R)-thiophene-2-sulfonic acid (4-(3,4-dimethoxy-phenyl)-4-{1,3-dioxo-4-[4-(1R)-(1-phenyl-ethyl)-piperazin-1-yl]-1,3-dihydro-isoindol-2-yl}-butyl)-amide] | 6.62 | 7.54 | – | 7.31
7 | COc1ccc([C@H](CCCNS(=O)(=O)c2cccs2)N2C(=O)c3cccc(N4CCN([C@H](C)c5ccccc5)CC4)c3C2=O)cc1OC [Cpd 119] | 6.59 | 7.16 | – | 6.92

The next lines start with results.

Row | pIC50 [1] | pIC50 [2] | pKi [3] | Compound | pKi [3, 4]
8 | 7.34 | 7.85 | 7.51 | COc1ccc(C(CCCNS(=O)(=O)c2cnoc2C)N2C(=O)c3cccc(N4CCN([C@H](C)c5ccccc5)CC4)c3C2=O)cc1OC (stereo partly drawn) [Cpd 108, 5-methyl-isoxazole-4-sulfonic acid (4-(3,4-dimethoxy-phenyl)-4-{1,3-dioxo-4-[4-(1R)-(1-phenyl-ethyl)-piperazin-1-yl]-1,3-dihydro-isoindol-2-yl}-butyl)-amide] | –
9 | 6.52 | 7.57 | 7.72 | COc1ccc(C(CCCNS(=O)(=O)c2cccc3cccnc23)N2C(=O)c3cccc(N4CCN([C@H](C)c5ccccc5)CC4)c3C2=O)cc1OC (stereo partly drawn) [Cpd 109, quinoline-8-sulfonic acid (4-(3,4-dimethoxy-phenyl)-4-{1,3-dioxo-4-[4-(1R)-(1-phenyl-ethyl)-piperazin-1-yl]-1,3-dihydro-isoindol-2-yl}-butyl)-amide] | –
10 | 6.60 | 7.72 | 7.60 | COc1ccc(C(CCCNS(=O)(=O)CS(C)(=O)=O)N2C(=O)c3cccc(N4CCN([C@H](C)c5ccccc5)CC4)c3C2=O)cc1OC (stereo partly drawn) [Cpd 110, N-(4-(3,4-dimethoxy-phenyl)-4-{1,3-dioxo-4-[4-(1R)-(1-phenyl-ethyl)-piperazin-1-yl]-1,3-dihydro-isoindol-2-yl}-butyl)-C-methanesulfonyl-methanesulfonamide] | –
11 | 5.85 | 7.16 | 7.59 | COc1ccc(C(CCCNS(=O)(=O)c2c(C)noc2C)N2C(=O)c3cccc(N4CCN([C@H](C)c5ccccc5)CC4)c3C2=O)cc1OC (stereo partly drawn) [Cpd 112, 3,5-dimethyl-isoxazole-4-sulfonic acid (4-(3,4-dimethoxy-phenyl)-4-{1,3-dioxo-4-[4-(1R)-(1-phenyl-ethyl)-piperazin-1-yl]-1,3-dihydro-isoindol-2-yl}-butyl)-amide] | –
12 | 6.33 | 7.77 | 7.96 | COc1ccc(C(CCCNS(=O)(=O)c2cn(C)c(C)n2)N2C(=O)c3cccc(N4CCN([C@H](C)c5ccccc5)CC4)c3C2=O)cc1OC (stereo partly drawn) [Cpd 114, 1,2-dimethyl-1H-imidazole-4-sulfonic acid (4-(3,4-dimethoxy-phenyl)-4-{1,3-dioxo-4-[4-(1R)-(1-phenyl-ethyl)-piperazin-1-yl]-1,3-dihydro-isoindol-2-yl}-butyl)-amide] | –
13 | 6.34 | 7.55 | 7.41 | COc1ccc(C(CCCNS(=O)(=O)N(C)C)N2C(=O)c3cccc(N4CCN([C@H](C)c5ccccc5)CC4)c3C2=O)cc1OC (stereo partly drawn) [Cpd 115, N′-[(4-(3,4-dimethoxy-phenyl)-4-{1,3-dioxo-4-[4-(1R)-(1-phenyl-ethyl)-piperazin-1-yl]-1,3-dihydro-isoindol-2-yl}-butyl)]-N,N-dimethyl-sulfamide] | –
14 | 6.15 | 7.24 | 7.49 | COc1ccc(C(CCCNS(=O)(=O)Cc2ccccc2)N2C(=O)c3cccc(N4CCN([C@H](C)c5ccccc5)CC4)c3C2=O)cc1OC (stereo partly drawn) [Cpd 117, N-(4-(3,4-dimethoxy-phenyl)-4-{1,3-dioxo-4-[4-(1R)-(1-phenyl-ethyl)-piperazin-1-yl]-1,3-dihydro-isoindol-2-yl}-butyl)-C-phenyl-methanesulfonamide] | –
15 | 6.30 | 7.92 | 6.92 | COc1ccc(C(CCCNS(N)(=O)=O)N2C(=O)c3cccc(N4CCN([C@H](C)c5ccccc5)CC4)c3C2=O)cc1OC (stereo partly drawn) [Cpd 122, N′-[(4-(3,4-dimethoxy-phenyl)-4-{1,3-dioxo-4-[4-(1R)-(1-phenyl-ethyl)-piperazin-1-yl]-1,3-dihydro-isoindol-2-yl}-butyl)]-sulfamide] | –
